# Columns and labels:
# Parameters in all cases: scale not given here
# ZEAMX Corn, Field [1] = assay: Postemergence herbicidal evaluation, ZEAMX; assay type: in vivo, Zea mays, L. (Sammel-Bezeichnung); conditions: postemergence spray, rated about two-three weeks after treatment
# In short: (§1)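 Plants are raised for roughly two weeks, then treated postemergence with compound dispersed in acetone/water (80/20) plus 1.0% seed oil adjuvant, at rates of about 0.006 kg to 0.400 kg per hectare. After greenhouse care, damage is scored two to three weeks later.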
# AMBEL Ragweed, Common [2] = assay: Preemergence herbicidal evaluation, AMBEL; assay type: in vivo, Ambrosia artemisifolia, L.; conditions: preemergence
# In short: (§2)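 Preemergence soil spray: aqueous acetone, ~0.013–0.800 kg/ha, applied right after sowing (seed/potting-soil mix over ~1 in soil). Greenhouse, routine watering. Scored 4–5 wk post-treatment on a rating scale.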
# ECHOG Barnyardgrass [3] = assay: Postemergence herbicidal evaluation, ECHOG; assay type: in vivo, Echinochloa crus-galli, (L.) Beau; conditions: postemergence spray, rated about two-three weeks after treatment
# In short: as §1
# [4] = test system: IPOHE Morningglory, Ivyleaf; assay: Postemergence herbicidal evaluation, IPOHE; assay type: in vivo, Ipomoea hederacea, (L.) Jacq.; conditions: postemergence spray, rated about two-three weeks after treatment
# In short: as §1
# GALAP Galium [5] = assay: Preemergence herbicidal evaluation, GALAP; assay type: in vivo, Galium aparine; conditions: preemergence
# In short: as §2
# [6] = test system: CHEAL Lambsquarters, Common; assay: Postemergence herbicidal evaluation, CHEAL; assay type: in vivo, Chenopodium album, L.; conditions: postemergence spray, rated about two-three weeks after treatment
# In short: as §1
# [7] = test system: CHEAL Lambsquarters, Common; assay: Preemergence herbicidal evaluation, CHEAL; assay type: in vivo, Chenopodium album, L.; conditions: preemergence
# In short: as §2
# CASOB Sicklepod [8] = assay: Postemergence herbicidal evaluation, CASOB; assay type: in vivo, Cassia obtusifolia, L.; conditions: postemergence spray, rated about two-three weeks after treatment
# In short: as §1
# ZEAMX Corn, Field [9] = assay: Preemergence herbicidal evaluation, ZEAMX; assay type: in vivo, Zea mays, L. (Sammel-Bezeichnung); conditions: preemergence
# In short: as §2
# AMBEL Ragweed, Common [10] = assay: Postemergence herbicidal evaluation, AMBEL; assay type: in vivo, Ambrosia artemisifolia, L.; conditions: postemergence spray, rated about two-three weeks after treatment
# In short: as §1
# ORYSAT Rice, Tebonnet [11] = assay: Postemergence herbicidal evaluation, ORYSAT; assay type: in vivo, Oryza sativa, (L.); conditions: postemergence spray, rated about two-three weeks after treatment
# In short: as §1
# ABUTH Velvetleaf [12] = assay: Postemergence herbicidal evaluation, ABUTH; assay type: in vivo, Abutilon theophrasti, Medic.; conditions: postemergence spray, rated about two-three weeks after treatment
# In short: as §1
# [13] = test system: TRZAWR Wheat, Winter, cv Riband; assay: Postemergence herbicidal evaluation, TRZAWR; assay type: in vivo, Triticum aestivum; conditions: postemergence spray, rated about two-three weeks after treatment
# In short: as §1
# [14] = test system: IPOHE Morningglory, Ivyleaf; assay: Preemergence herbicidal evaluation, IPOHE; assay type: in vivo, Ipomoea hederacea, (L.) Jacq.; conditions: preemergence
# In short: as §2
# ECHOG Barnyardgrass [15] = assay: Preemergence herbicidal evaluation, ECHOG; assay type: in vivo, Echinochloa crus-galli, (L.) Beau; conditions: preemergence
# In short: as §2
# [16] = test system: TRZAWR Wheat, Winter, cv Riband; assay: Preemergence herbicidal evaluation, TRZAWR; assay type: in vivo, Triticum aestivum; conditions: preemergence
# In short: as §2
# GLXMAW Soybean, Williams [17] = assay: Postemergence herbicidal evaluation, GLXMAW; assay type: in vivo, Glycine max, (L.) Merr. cv Williams; conditions: postemergence spray, rated about two-three weeks after treatment
# In short: as §1
# CASOB Sicklepod [18] = assay: Preemergence herbicidal evaluation, CASOB; assay type: in vivo, Cassia obtusifolia, L.; conditions: preemergence
# In short: as §2
# SETVI Foxtail, Green [19] = assay: Preemergence herbicidal evaluation, SETVI; assay type: in vivo, Setaria viridis, (L.) Beau; conditions: preemergence
# In short: as §2
# GLXMAW Soybean, Williams [20] = assay: Preemergence herbicidal evaluation, GLXMAW; assay type: in vivo, Glycine max, (L.) Merr. cv Williams; conditions: preemergence
# In short: as §2
# GALAP Galium [21] = assay: Postemergence herbicidal evaluation, GALAP; assay type: in vivo, Galium aparine; conditions: postemergence spray, rated about two-three weeks after treatment
# In short: as §1
# ORYSAT Rice, Tebonnet [22] = assay: Preemergence herbicidal evaluation, ORYSAT; assay type: in vivo, Oryza sativa, (L.); conditions: preemergence
# In short: as §2
# SETVI Foxtail, Green [23] = assay: Postemergence herbicidal evaluation, SETVI; assay type: in vivo, Setaria viridis, (L.) Beau; conditions: postemergence spray, rated about two-three weeks after treatment
# In short: as §1
# ABUTH Velvetleaf [24] = assay: Preemergence herbicidal evaluation, ABUTH; assay type: in vivo, Abutilon theophrasti, Medic.; conditions: preemergence
# In short: as §2
smiles,measurement,setting,value
Cc1ccc(-n2nnc3cc(F)c(-n4c(=O)cc(C(F)(F)F)n(C)c4=O)cc32)cc1C [Example 23],Postemergence herbicidal rating ZEAMX,"ZEAMX Corn, Field [1]; 0.008 kg/ha",5.5
same,Postemergence herbicidal rating ZEAMX,"ZEAMX Corn, Field [1]; 0.016 kg/ha",7.0
same,Postemergence herbicidal rating ZEAMX,"ZEAMX Corn, Field [1]; 0.032 kg/ha",8.0
same,Postemergence herbicidal rating ZEAMX,"ZEAMX Corn, Field [1]; 0.062 kg/ha",8.5
same,AMBEL herbicidal rating,"AMBEL Ragweed, Common [2]; rate 0.016 kg/ha",0.0
same,AMBEL herbicidal rating,"AMBEL Ragweed, Common [2]; rate 0.032 kg/ha",0.0
same,AMBEL herbicidal rating,"AMBEL Ragweed, Common [2]; rate 0.062 kg/ha",0.0
same,AMBEL herbicidal rating,"AMBEL Ragweed, Common [2]; rate 0.125 kg/ha",1.0
same,Postemergence herbicidal rating ECHCG,ECHOG Barnyardgrass [3]; 0.008 kg/ha,0.0
same,Postemergence herbicidal rating ECHCG,ECHOG Barnyardgrass [3]; 0.016 kg/ha,0.0
same,Postemergence herbicidal rating ECHCG,ECHOG Barnyardgrass [3]; 0.032 kg/ha,0.0
same,Postemergence herbicidal rating ECHCG,ECHOG Barnyardgrass [3]; 0.062 kg/ha,0.0
same,Postemergence herbicidal rating IPOHE,[4]; 0.008 kg/ha,2.0
same,Postemergence herbicidal rating IPOHE,[4]; 0.016 kg/ha,9.0
same,Postemergence herbicidal rating IPOHE,[4]; 0.032 kg/ha,9.0
same,Postemergence herbicidal rating IPOHE,[4]; 0.062 kg/ha,9.0
same,GALAP herbicidal rating,GALAP Galium [5]; rate 0.016 kg/ha,0.0
same,GALAP herbicidal rating,GALAP Galium [5]; rate 0.032 kg/ha,0.0
same,GALAP herbicidal rating,GALAP Galium [5]; rate 0.062 kg/ha,0.0
same,GALAP herbicidal rating,GALAP Galium [5]; rate 0.125 kg/ha,0.0
same,Postemergence herbicidal rating CHEAL,[6]; 0.008 kg/ha,3.0
same,Postemergence herbicidal rating CHEAL,[6]; 0.032 kg/ha,4.0
same,Postemergence herbicidal rating CHEAL,[6]; 0.062 kg/ha,9.0
same,CHEAL herbicidal rating,[7]; rate 0.016 kg/ha,0.0
same,CHEAL herbicidal rating,[7]; rate 0.032 kg/ha,7.0
same,CHEAL herbicidal rating,[7]; rate 0.062 kg/ha,9.0
same,CHEAL herbicidal rating,[7]; rate 0.125 kg/ha,9.0
same,Postemergence herbicidal rating CASOB,CASOB Sicklepod [8]; 0.008 kg/ha,0.0
same,Postemergence herbicidal rating CASOB,CASOB Sicklepod [8]; 0.016 kg/ha,0.0
same,Postemergence herbicidal rating CASOB,CASOB Sicklepod [8]; 0.032 kg/ha,0.0
same,Postemergence herbicidal rating CASOB,CASOB Sicklepod [8]; 0.062 kg/ha,3.0
same,ZEAMX herbicidal rating,"ZEAMX Corn, Field [9]; rate 0.016 kg/ha",0.0
same,ZEAMX herbicidal rating,"ZEAMX Corn, Field [9]; rate 0.032 kg/ha",0.0
same,ZEAMX herbicidal rating,"ZEAMX Corn, Field [9]; rate 0.062 kg/ha",0.0
same,ZEAMX herbicidal rating,"ZEAMX Corn, Field [9]; rate 0.125 kg/ha",4.0
same,Postemergence herbicidal rating AMBEL,"AMBEL Ragweed, Common [10]; 0.008 kg/ha",0.0
same,Postemergence herbicidal rating AMBEL,"AMBEL Ragweed, Common [10]; 0.016 kg/ha",0.0
same,Postemergence herbicidal rating AMBEL,"AMBEL Ragweed, Common [10]; 0.032 kg/ha",4.0
same,Postemergence herbicidal rating AMBEL,"AMBEL Ragweed, Common [10]; 0.062 kg/ha",9.0
same,Postemergence herbicidal rating ORYSAT,"ORYSAT Rice, Tebonnet [11]; 0.008 kg/ha",2.5
same,Postemergence herbicidal rating ORYSAT,"ORYSAT Rice, Tebonnet [11]; 0.016 kg/ha",3.0
same,Postemergence herbicidal rating ORYSAT,"ORYSAT Rice, Tebonnet [11]; 0.032 kg/ha",3.5
same,Postemergence herbicidal rating ORYSAT,"ORYSAT Rice, Tebonnet [11]; 0.062 kg/ha",4.0
same,Postemergence herbicidal rating ABUTH,ABUTH Velvetleaf [12]; 0.008 kg/ha,9.0
same,Postemergence herbicidal rating ABUTH,ABUTH Velvetleaf [12]; 0.016 kg/ha,9.0
same,Postemergence herbicidal rating ABUTH,ABUTH Velvetleaf [12]; 0.032 kg/ha,9.0
same,Postemergence herbicidal rating ABUTH,ABUTH Velvetleaf [12]; 0.062 kg/ha,9.0
same,Postemergence herbicidal rating TRZAWR,[13]; 0.008 kg/ha,4.0
same,Postemergence herbicidal rating TRZAWR,[13]; 0.016 kg/ha,4.5
same,Postemergence herbicidal rating TRZAWR,[13]; 0.032 kg/ha,5.5
same,Postemergence herbicidal rating TRZAWR,[13]; 0.062 kg/ha,6.5
same,IPOHE herbicidal rating,[14]; rate 0.016 kg/ha,0.0
same,IPOHE herbicidal rating,[14]; rate 0.032 kg/ha,0.0
same,IPOHE herbicidal rating,[14]; rate 0.062 kg/ha,0.0
same,IPOHE herbicidal rating,[14]; rate 0.125 kg/ha,1.0
same,ECHCG herbicidal rating,ECHOG Barnyardgrass [15]; rate 0.016 kg/ha,0.0
same,ECHCG herbicidal rating,ECHOG Barnyardgrass [15]; rate 0.032 kg/ha,2.0
same,ECHCG herbicidal rating,ECHOG Barnyardgrass [15]; rate 0.062 kg/ha,5.0
same,ECHCG herbicidal rating,ECHOG Barnyardgrass [15]; rate 0.125 kg/ha,8.0
same,TRZAWR herbicidal rating,[16]; rate 0.016 kg/ha,0.0
same,TRZAWR herbicidal rating,[16]; rate 0.032 kg/ha,0.0
same,TRZAWR herbicidal rating,[16]; rate 0.062 kg/ha,1.0
same,TRZAWR herbicidal rating,[16]; rate 0.125 kg/ha,3.0
same,Postemergence herbicidal rating GLXMAW,"GLXMAW Soybean, Williams [17]; 0.008 kg/ha",3.5
same,Postemergence herbicidal rating GLXMAW,"GLXMAW Soybean, Williams [17]; 0.016 kg/ha",4.5
same,Postemergence herbicidal rating GLXMAW,"GLXMAW Soybean, Williams [17]; 0.032 kg/ha",4.5
same,Postemergence herbicidal rating GLXMAW,"GLXMAW Soybean, Williams [17]; 0.062 kg/ha",4.5
same,CASOB herbicidal rating,CASOB Sicklepod [18]; rate 0.016 kg/ha,0.0
same,CASOB herbicidal rating,CASOB Sicklepod [18]; rate 0.032 kg/ha,0.0
same,CASOB herbicidal rating,CASOB Sicklepod [18]; rate 0.062 kg/ha,0.0
same,CASOB herbicidal rating,CASOB Sicklepod [18]; rate 0.125 kg/ha,0.0
same,SETVI herbicidal rating,"SETVI Foxtail, Green [19]; rate 0.016 kg/ha",3.0
same,SETVI herbicidal rating,"SETVI Foxtail, Green [19]; rate 0.032 kg/ha",8.0
same,SETVI herbicidal rating,"SETVI Foxtail, Green [19]; rate 0.062 kg/ha",9.0
same,SETVI herbicidal rating,"SETVI Foxtail, Green [19]; rate 0.125 kg/ha",9.0
same,GLXMAW herbicidal rating,"GLXMAW Soybean, Williams [20]; rate 0.016 kg/ha",0.0
same,GLXMAW herbicidal rating,"GLXMAW Soybean, Williams [20]; rate 0.032 kg/ha",0.0
same,GLXMAW herbicidal rating,"GLXMAW Soybean, Williams [20]; rate 0.062 kg/ha",0.0
same,GLXMAW herbicidal rating,"GLXMAW Soybean, Williams [20]; rate 0.125 kg/ha",0.0
same,Postemergence herbicidal rating GALAP,GALAP Galium [21]; 0.008 kg/ha,0.0
same,Postemergence herbicidal rating GALAP,GALAP Galium [21]; 0.016 kg/ha,2.0
same,Postemergence herbicidal rating GALAP,GALAP Galium [21]; 0.032 kg/ha,2.0
same,Postemergence herbicidal rating GALAP,GALAP Galium [21]; 0.062 kg/ha,2.0
same,ORYSAT herbicidal rating,"ORYSAT Rice, Tebonnet [22]; rate 0.016 kg/ha",0.0
same,ORYSAT herbicidal rating,"ORYSAT Rice, Tebonnet [22]; rate 0.032 kg/ha",0.0
same,ORYSAT herbicidal rating,"ORYSAT Rice, Tebonnet [22]; rate 0.062 kg/ha",0.0
same,ORYSAT herbicidal rating,"ORYSAT Rice, Tebonnet [22]; rate 0.125 kg/ha",0.0
same,Postemergence herbicidal rating SETVI,"SETVI Foxtail, Green [23]; 0.008 kg/ha",7.0
same,Postemergence herbicidal rating SETVI,"SETVI Foxtail, Green [23]; 0.016 kg/ha",9.0
same,Postemergence herbicidal rating SETVI,"SETVI Foxtail, Green [23]; 0.032 kg/ha",9.0
same,Postemergence herbicidal rating SETVI,"SETVI Foxtail, Green [23]; 0.062 kg/ha",9.0
same,ABUTH herbicidal rating,ABUTH Velvetleaf [24]; rate 0.016 kg/ha,0.0
same,ABUTH herbicidal rating,ABUTH Velvetleaf [24]; rate 0.032 kg/ha,3.0
same,ABUTH herbicidal rating,ABUTH Velvetleaf [24]; rate 0.062 kg/ha,9.0
same,ABUTH herbicidal rating,ABUTH Velvetleaf [24]; rate 0.125 kg/ha,9.0

# From patent publication US20020111274A1, “1-alkyl-3-[1-(substituted phenyl) benzotriazol-6-yl] uracils” (BASF Aktiengesellschaft, priority 2000, published 2002)
